From ChEMBL document CHEMBL1201862, “PubChem BioAssay data set” (2004)
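A five-concentration, 48-hour dose response in 96-well plates underlies each endpoint, interpolated linearly between surrounding concentrations. Here, GI50 denotes the concentration required for 50% inhibition of growth.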 Active and inactive are the calls of the source. No stated cut-off is given here; in the data, active = GI50 up to about 1.1 µM and inactive = higher.

Assays:
Assay in all cases: DTP human tumour cell line panel, 48 h
SK-MEL-2 = test system: SK-MEL-2
MDA-MB-435 = test system: MDA-MB-435
MDA-N = test system: MDA-N
OVCAR-5 = test system: OVCAR-5
MDA-MB-231 = test system: MDA-MB-231
BT-549 = test system: BT-549
DU-145 = test system: DU-145
786-0 = test system: 786-0
U-251 = test system: U-251
A498 = test system: A498
HCC 2998 = test system: HCC 2998
NCI-H23 = test system: NCI-H23
OVCAR-3 = test system: OVCAR-3
HT-29 = test system: HT-29
HL-60 = test system: HL-60
HCT-15 = test system: HCT-15
UACC-62 = test system: UACC-62
HOP-62 = test system: HOP-62
OVCAR-8 = test system: OVCAR-8
NCI-H522 = test system: NCI-H522

| SMILES | GI50 (SK-MEL-2) | GI50 (MDA-MB-435) | GI50 (MDA-N) | GI50 (OVCAR-5) | GI50 (MDA-MB-231) | GI50 (BT-549) | GI50 (DU-145) | GI50 (786-0) | GI50 (U-251) | GI50 (A498) | GI50 (HCC 2998) | GI50 (NCI-H23) | GI50 (OVCAR-3) | GI50 (HT-29) | GI50 (HL-60) | GI50 (HCT-15) [µM] | GI50 (UACC-62) | GI50 (HOP-62) | GI50 (OVCAR-8) | GI50 (NCI-H522) |
| --- | --- | --- | --- | --- | --- | --- | --- | --- | --- | --- | --- | --- | --- | --- | --- | --- | --- | --- | --- | --- |
| Cc1ccc2c(c1)[nH]c(=S)n2C=C(C(N)=O)C(N)=O | > 100 µM (inactive) | > 100 µM (inactive) | > 100 µM (inactive) | > 100 µM (inactive) | > 100 µM (inactive) | > 100 µM (inactive) | > 100 µM (inactive) | > 100 µM (inactive) | > 100 µM (inactive) | > 100 µM (inactive) | > 100 µM (inactive) | > 100 µM (inactive) | > 100 µM (inactive) | > 100 µM (inactive) | 5.66 µM (inactive) | > 100 | > 100 µM (inactive) | > 100 µM (inactive) | > 100 µM (inactive) | – |
| C=C(Br)COc1ccc2c(C)cc(=O)oc2c1 | > 100 µM (inactive) | 56.1 µM (inactive) | > 100 µM (inactive) | > 100 µM (inactive) | 0.951 µM (active) | > 100 µM (inactive) | > 100 µM (inactive) | > 100 µM (inactive) | 65.3 µM (inactive) | 64.7 µM (inactive) | 95.3 µM (inactive) | 90.4 µM (inactive) | 86.3 µM (inactive) | 66.4 µM (inactive) | 40.2 µM (inactive) | 57.7 | – | 69.8 µM (inactive) | 47.9 µM (inactive) | 42.6 µM (inactive) |
| COc1ccc(N2C(=O)C3c4[nH]c5ccccc5c4C4C(C)CCCC4C3C2=O)cc1 (stereo unspecified) | 44.6 µM (inactive) | 3.46 µM (inactive) | 3.19 µM (inactive) | > 63.8 µM (inactive) | 20.4 µM (inactive) | 3.64 µM (inactive) | > 83 µM (inactive) | 17.5 µM (inactive) | > 57.7 µM (inactive) | 45.5 µM (inactive) | > 100 µM (inactive) | 54.7 µM (inactive) | 26.1 µM (inactive) | 29.7 µM (inactive) | – | > 34 | 48.8 µM (inactive) | 23.6 µM (inactive) | 34 µM (inactive) | 7.94 µM (inactive) |
| COC(=O)C(Cc1c(C2Nc3ccccc3C2CC(NC(=O)CNC(C)=O)C(=O)OC)[nH]c2ccccc12)NC(=O)CNC(C)=O (stereo unspecified) | > 86.9 µM (inactive) | > 100 µM (inactive) | > 100 µM (inactive) | > 100 µM (inactive) | > 100 µM (inactive) | > 100 µM (inactive) | > 100 µM (inactive) | > 100 µM (inactive) | > 100 µM (inactive) | > 100 µM (inactive) | > 100 µM (inactive) | > 100 µM (inactive) | – | > 100 µM (inactive) | > 26.6 µM (inactive) | > 100 | > 100 µM (inactive) | – | > 100 µM (inactive) | > 100 µM (inactive) |
| CSc1[nH]nc(N)c1C(=O)Nc1ccc(C)cc1 | 74.1 µM (inactive) | 30.9 µM (inactive) | 49.5 µM (inactive) | 54.7 µM (inactive) | 63.2 µM (inactive) | 90.6 µM (inactive) | 22.3 µM (inactive) | 49.4 µM (inactive) | 50.2 µM (inactive) | 18.7 µM (inactive) | 76.9 µM (inactive) | 61.1 µM (inactive) | 77.3 µM (inactive) | > 100 µM (inactive) | 39.3 µM (inactive) | 51.3 | > 100 µM (inactive) | > 100 µM (inactive) | – | 26.7 µM (inactive) |
| Nc1nc(-c2ccccc2)cc(-c2ccc(OCc3ccccc3)cc2O)n1 | 32.4 µM (inactive) | 34 µM (inactive) | 39.3 µM (inactive) | > 100 µM (inactive) | 70.3 µM (inactive) | 28.8 µM (inactive) | 73.6 µM (inactive) | 40.9 µM (inactive) | 31.8 µM (inactive) | 60.3 µM (inactive) | 34.4 µM (inactive) | 38.3 µM (inactive) | 26.7 µM (inactive) | 37.8 µM (inactive) | – | 32.2 | 64.7 µM (inactive) | 83.9 µM (inactive) | 29.6 µM (inactive) | 20.5 µM (inactive) |
| CC1CCCC(C(=O)CC2CC(=O)NC(=O)C2)C1=O (stereo unspecified) | > 100 µM (inactive) | > 100 µM (inactive) | > 100 µM (inactive) | > 100 µM (inactive) | > 100 µM (inactive) | > 100 µM (inactive) | > 100 µM (inactive) | > 100 µM (inactive) | > 100 µM (inactive) | > 100 µM (inactive) | > 100 µM (inactive) | > 100 µM (inactive) | > 100 µM (inactive) | > 100 µM (inactive) | > 100 µM (inactive) | > 100 | > 100 µM (inactive) | > 100 µM (inactive) | > 100 µM (inactive) | – |
| CCCCC[C@@H]1OC(=O)[C@@]2(CC3c4ccccc4C2c2ccccc23)[C@H]1C(=O)OC | 28.4 µM (inactive) | 93.1 µM (inactive) | 79.6 µM (inactive) | > 100 µM (inactive) | > 100 µM (inactive) | > 100 µM (inactive) | > 100 µM (inactive) | 67.3 µM (inactive) | 45 µM (inactive) | 13.4 µM (inactive) | 23.6 µM (inactive) | 21.9 µM (inactive) | 92.5 µM (inactive) | 17.3 µM (inactive) | 6.35 µM (inactive) | 29.9 | 9.29 µM (inactive) | > 100 µM (inactive) | 79.1 µM (inactive) | – |
